Experimental data as given in the supplement of paper PMC10307832.

Experiments:
Assay in all cases: relative viability (nuclei count vs DMSO), 5 days (fraction); higher = more cells survive
[1] = compound: CC1=CC(=CC=C1)NC2=NC(=CS2)C3=CC=NC=C3 + CS(=O)(=O)CCNCc1ccc(-c2ccc3ncnc(Nc4ccc(OCc5cccc(F)c5)c(Cl)c4)c3c2)o1 [Lapatinib] (partner 2 µM)
Method in brief: (§1)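 Lung cancer cell lines were pin-tool dosed in 1536-well plates on the day after seeding, with either a lone drug or a fixed anchor-drug dose plus five library-drug doses (not always all listed) in √10 steps. Nuclei were counted on 4× images after 5 days. Relative viability is the ratio of treated-well to vehicle-well nuclei counts, with each value a median of duplicate plates.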

Masitinib + Palbociclib = compound: Cc1ccc(NC(=O)c2ccc(CN3CCN(C)CC3)cc2)cc1Nc1nc(-c2cccnc2)cs1 [Masitinib] + CC(=O)c1c(C)c2cnc(Nc3ccc(N4CCNCC4)cn3)nc2n(C2CCCC2)c1=O [Palbociclib] (partner 0.5 µM)
Method in brief: as §1

Masitinib + Phenformin = compound: Cc1ccc(NC(=O)c2ccc(CN3CCN(C)CC3)cc2)cc1Nc1nc(-c2cccnc2)cs1 [Masitinib] + N=C(N)NC(=N)NCCc1ccccc1 [Phenformin] (partner 250 µM)
Method in brief: as §1

Masitinib + Luminespib = compound: Cc1ccc(NC(=O)c2ccc(CN3CCN(C)CC3)cc2)cc1Nc1nc(-c2cccnc2)cs1 [Masitinib] + CCNC(=O)c1noc(-c2cc(C(C)C)c(O)cc2O)c1-c1ccc(CN2CCOCC2)cc1 [Luminespib] (partner 0.01 µM)
Method in brief: as §1

Cell Line	relative viability ([1]; first compound 0.08 µM)	relative viability ([1]; first compound 0.253 µM)	relative viability ([1]; first compound 0.8 µM)	relative viability ([1]; first compound 2.53 µM)	relative viability ([1]; first compound 8 µM)	relative viability (Masitinib + Palbociclib; first compound 0.01 µM)	relative viability (Masitinib + Palbociclib; first compound 0.03162 µM)	relative viability (Masitinib + Palbociclib; first compound 0.1 µM)	relative viability (Masitinib + Palbociclib; first compound 0.3162 µM)	relative viability (Masitinib + Palbociclib; first compound 1 µM)	relative viability (Masitinib + Phenformin; first compound 0.01 µM)	relative viability (Masitinib + Phenformin; first compound 0.03162 µM)	relative viability (Masitinib + Phenformin; first compound 0.1 µM)	relative viability (Masitinib + Phenformin; first compound 0.3162 µM)	relative viability (Masitinib + Phenformin; first compound 1 µM)	relative viability (Masitinib + Luminespib; first compound 0.01 µM)	relative viability (Masitinib + Luminespib; first compound 0.03162 µM)	relative viability (Masitinib + Luminespib; first compound 0.1 µM)	relative viability (Masitinib + Luminespib; first compound 0.3162 µM)	relative viability (Masitinib + Luminespib; first compound 1 µM)
HCC-15	0.809	0.841	0.848	0.845	0.739	0.658	0.74	0.799	0.739	0.77	0.448	0.453	0.497	0.459	0.405	0.306	0.389	0.37	0.476	0.141
HCC-78	0.708	0.528	0.862	0.623	0.673	0.436	0.451	0.497	0.488	0.534	0.724	0.638	0.752	0.663	0.718					
LCLC-103H							0.471	0.458	0.511	0.475	0.339	0.348	0.306	0.344	0.293	0.727	0.932	1.04	0.748	1.03
NCI-H1299	0.969	0.938	0.933	0.946	0.84															
ChaGo-K-1						0.954	0.952	0.966	0.972	0.897	0.509	0.455	0.511	0.467	0.411	0.681	0.48	0.635	0.524	0.569
NCI-H1563	0.912	0.64	0.912	0.761	0.634						0.631	0.701	0.689	0.684	0.643	0.509	0.537	0.524	0.532	0.505
NCI-H1703	0.894	1.21	1.19	1.36	1.07															
NCI-H1648						0.297	0.313	0.289		0.228										
A549	0.863	0.893	0.898	0.891	0.809						0.148	0.186	0.153	0.198	0.12					
NCI-H522						1.03	1.07	1.31	0.849	1.13	0.653		0.635	0.775	0.714	1.18	1.16	1.05	1.13	0.94
NCI-H441						0.232	0.211	0.262	0.188	0.191	0.654	1.05	0.837	0.94	0.843	0.288	0.402	0.349	0.407	0.318
NCI-H1623											0.509	0.494	0.564	0.52	0.533	0.493	0.451	0.814	0.427	0.506
SW 900						0.462	0.458	0.575	0.502	0.513	0.652	0.609	0.706	0.448	0.436	0.165	0.156	0.163	0.158	0.185
IA-LM	0.65	0.503	0.561	0.508	0.572															
EBC-1	0.202	0.238	0.204	0.206	0.167															
